Marks after values point to notes of the source that are not given here.
Test system: Bronchoconstriction in guinea pigs induced by PAF
Experiment: Platelet activating factor (PAF)-induced bronchoconstriction in guinea pigs (method of Konzett-Rossler)
Assay type: in vivo
Conditions: 8 animals
Procedure: Platelet activating factor (PAF)-induced bronchoconstriction in guinea pigs
Bronchoconstriction in guinea pigs induced by PAF (1 µg/kg, intravenous injection) was measured by the method of Konzett-Rossler. The following procedure was the same as that in leukotriene D4(LTD4)-induced bronchoconstriction. Test drugs were orally administered as a 5% gum arabic solution one hour before administration of PAF. Table 2 Inhibitory action against bronchoconstriction in guinea pigs

[1] = dose 5 mg/kg orally as 5% gum arabic solution one hour before PAF (1 µg/kg, intravenous injection)

Structure (SMILES)	% inhibition [1]	% inhibition (dose 0.313 mg/kg orally as 5% gum arabic solution one hour before PAF (1 µg/kg, intravenous injection))	% inhibition (dose 1.25 mg/kg orally as 5% gum arabic solution one hour before PAF (1 µg/kg, intravenous injection))
CC1=C(C)C(=O)C(C(CCCCCC(=O)N2CCN(CCc3ccccc3)CC2)c2ccccc2)=C(C)C1=O (racemic) [Compound No. 18, 7-(3,5,6-trimethyl-1 ,4-benzoquinon-2-yl)-7-phenylheptanoic acid 4-(2-phenylethyl)-piperazinamide]	59.9* %	–	–
CC1=C(C)C(=O)C(C(CCCCCC(=O)NC(Cc2ccccc2)C(=O)O)c2ccccc2)=C(C)C1=O (centres unmarked) [Compound No. 30]	72.1* %	–	–
CC1=C(C)C(=O)C(C(CCCCCC(N)=O)c2ccccc2)=C(C)C1=O (centres unmarked) [Compound No. 1, 7-(3,5,6-trimethyl-1,4-benzoquinon-2-yl)-7-phenylheptanamide]	100.0** %	49.7* %	80.3** %
